According to PubChem BioAssay (NCI):
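Cultured in 96-well plates, cells were exposed to test compound for 48 hours across five concentrations. The concentration for full growth arrest is given as TGI.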

Legend:
Experiment in all cases: inhibition of tumour cell growth, NCI panel, 48 h
786-0 renal = test system: 786-0 renal
A498 renal = test system: A498 renal
A549 NSCLC = test system: A549 NSCLC
ACHN renal = test system: ACHN renal
BT-549 breast = test system: BT-549 breast
CAKI-1 renal = test system: CAKI-1 renal
CCRF-CEM leukemia = test system: CCRF-CEM leukemia
COLO 205 colon = test system: COLO 205 colon
DU-145 prostate = test system: DU-145 prostate
EKVX NSCLC = test system: EKVX NSCLC
HCC-2998 colon = test system: HCC-2998 colon
HCT-116 colon = test system: HCT-116 colon
HCT-15 colon = test system: HCT-15 colon
HL-60(TB) leukemia = test system: HL-60(TB) leukemia
HOP-62 NSCLC = test system: HOP-62 NSCLC
HOP-92 NSCLC = test system: HOP-92 NSCLC
HS 578T breast = test system: HS 578T breast
HT29 colon = test system: HT29 colon
IGROV1 ovarian = test system: IGROV1 ovarian
K-562 leukemia = test system: K-562 leukemia
KM12 colon = test system: KM12 colon
LOX IMVI melanoma = test system: LOX IMVI melanoma
M14 melanoma = test system: M14 melanoma
MALME-3M melanoma = test system: MALME-3M melanoma
MCF7 breast = test system: MCF7 breast
MDA-MB-231 breast = test system: MDA-MB-231 breast
MDA-MB-435 = test system: MDA-MB-435
MDA-N = test system: MDA-N
MOLT-4 leukemia = test system: MOLT-4 leukemia
NCI-H226 lung = test system: NCI-H226 lung
NCI-H23 lung = test system: NCI-H23 lung
NCI-H460 lung = test system: NCI-H460 lung
NCI-H522 lung = test system: NCI-H522 lung
NCI/ADR-RES ovarian = test system: NCI/ADR-RES ovarian
OVCAR-3 ovarian = test system: OVCAR-3 ovarian
OVCAR-4 ovarian = test system: OVCAR-4 ovarian
OVCAR-5 ovarian = test system: OVCAR-5 ovarian
OVCAR-8 ovarian = test system: OVCAR-8 ovarian
PC-3 prostate = test system: PC-3 prostate
RPMI-8226 leukemia = test system: RPMI-8226 leukemia
RXF 393 renal = test system: RXF 393 renal
SF-268 CNS = test system: SF-268 CNS
SF-295 CNS = test system: SF-295 CNS
SF-539 CNS = test system: SF-539 CNS
SK-MEL-2 melanoma = test system: SK-MEL-2 melanoma
SK-MEL-28 melanoma = test system: SK-MEL-28 melanoma
SK-MEL-5 melanoma = test system: SK-MEL-5 melanoma
SK-OV-3 ovarian = test system: SK-OV-3 ovarian
SN12C renal = test system: SN12C renal
SNB-19 CNS = test system: SNB-19 CNS
SNB-75 CNS = test system: SNB-75 CNS
SR leukemia = test system: SR leukemia
SW-620 colon = test system: SW-620 colon
T-47D breast = test system: T-47D breast
TK-10 renal = test system: TK-10 renal
U251 CNS = test system: U251 CNS
UACC-257 melanoma = test system: UACC-257 melanoma
UACC-62 melanoma = test system: UACC-62 melanoma
UO-31 renal = test system: UO-31 renal

SMILES: N#Cc1c(N2CCCC2)ncn(-c2ccccc2)c1=S
- TGI (786-0 renal): > 100 µM
- TGI (A498 renal): > 100 µM
- TGI (A549 NSCLC): > 100 µM
- TGI (ACHN renal): > 100 µM
- TGI (BT-549 breast): > 100 µM
- TGI (CAKI-1 renal): > 100 µM
- TGI (CCRF-CEM leukemia): > 100000 nM
- TGI (COLO 205 colon): > 100 µM
- TGI (DU-145 prostate): > 100 µM
- TGI (EKVX NSCLC): > 100 µM
- TGI (HCC-2998 colon): > 100 µM
- TGI (HCT-116 colon): > 100 µM
- TGI (HCT-15 colon): > 100 µM
- TGI (HL-60(TB) leukemia): > 100000 nM
- TGI (HOP-62 NSCLC): > 100 µM
- TGI (HOP-92 NSCLC): > 100000 nM
- TGI (HS 578T breast): > 100 µM
- TGI (HT29 colon): > 100 µM
- TGI (IGROV1 ovarian): > 100 µM
- TGI (K-562 leukemia): > 100 µM
- TGI (KM12 colon): > 100 µM
- TGI (LOX IMVI melanoma): > 100 µM
- TGI (M14 melanoma): > 100 µM
- TGI (MALME-3M melanoma): > 100 µM
- TGI (MCF7 breast): > 100 µM
- TGI (MDA-MB-231 breast): > 100 µM
- TGI (MDA-MB-435): > 100 µM
- TGI (MDA-N): > 100 µM
- TGI (MOLT-4 leukemia): > 100 µM
- TGI (NCI-H226 lung): > 100 µM
- TGI (NCI-H23 lung): > 100 µM
- TGI (NCI-H460 lung): > 100 µM
- TGI (NCI-H522 lung): > 100000 nM
- TGI (NCI/ADR-RES ovarian): > 100 µM
- TGI (OVCAR-3 ovarian): > 100 µM
- TGI (OVCAR-4 ovarian): > 100000 nM
- TGI (OVCAR-5 ovarian): > 100 µM
- TGI (OVCAR-8 ovarian): > 100 µM
- TGI (PC-3 prostate): > 100 µM
- TGI (RPMI-8226 leukemia): > 100 µM
- TGI (RXF 393 renal): > 100000 nM
- TGI (SF-268 CNS): > 100 µM
- TGI (SF-295 CNS): > 100 µM
- TGI (SF-539 CNS): > 100 µM
- TGI (SK-MEL-2 melanoma): > 100 µM
- TGI (SK-MEL-28 melanoma): > 100 µM
- TGI (SK-MEL-5 melanoma): > 100 µM
- TGI (SK-OV-3 ovarian): > 100 µM
- TGI (SN12C renal): > 100 µM
- TGI (SNB-19 CNS): > 100 µM
- TGI (SNB-75 CNS): > 100 µM
- TGI (SR leukemia): > 100000 nM
- TGI (SW-620 colon): > 100 µM
- TGI (T-47D breast): > 100 µM
- TGI (TK-10 renal): > 100 µM
- TGI (U251 CNS): > 100 µM
- TGI (UACC-257 melanoma): > 100 µM
- TGI (UACC-62 melanoma): 69.3 µM
- TGI (UO-31 renal): > 100 µM

SMILES: O=C1C(N2CCOCC2)=C(Cl)C(=O)c2ncccc21
- TGI (786-0 renal): 3.24 µM
- TGI (A498 renal): > 10 µM
- TGI (A549 NSCLC): > 10 µM
- TGI (ACHN renal): 3.49 µM
- TGI (BT-549 breast): > 10 µM
- TGI (CAKI-1 renal): > 10 µM
- TGI (CCRF-CEM leukemia): 2160 nM
- TGI (COLO 205 colon): 3.91 µM
- TGI (DU-145 prostate): > 10 µM
- TGI (EKVX NSCLC): > 10 µM
- TGI (HCC-2998 colon): > 9.5 µM
- TGI (HCT-116 colon): 3.1 µM
- TGI (HCT-15 colon): 4.11 µM
- TGI (HL-60(TB) leukemia): 534 nM
- TGI (HOP-62 NSCLC): > 10 µM
- TGI (HOP-92 NSCLC): 2840 nM
- TGI (HS 578T breast): > 10 µM
- TGI (HT29 colon): > 10 µM
- TGI (IGROV1 ovarian): > 10 µM
- TGI (K-562 leukemia): 5.03 µM
- TGI (KM12 colon): > 5.35 µM
- TGI (LOX IMVI melanoma): 4.92 µM
- TGI (M14 melanoma): 4.97 µM
- TGI (MALME-3M melanoma): 3.45 µM
- TGI (MCF7 breast): 3.59 µM
- TGI (MDA-MB-231 breast): 5.24 µM
- TGI (MDA-MB-435): 3.22 µM
- TGI (MDA-N): 3.48 µM
- TGI (MOLT-4 leukemia): 3.19 µM
- TGI (NCI-H226 lung): > 10 µM
- TGI (NCI-H23 lung): 3.55 µM
- TGI (NCI-H460 lung): > 10 µM
- TGI (NCI-H522 lung): 2850 nM
- TGI (NCI/ADR-RES ovarian): > 10 µM
- TGI (OVCAR-3 ovarian): 3.39 µM
- TGI (OVCAR-4 ovarian): 2890 nM
- TGI (OVCAR-5 ovarian): > 10 µM
- TGI (OVCAR-8 ovarian): > 5.73 µM
- TGI (PC-3 prostate): > 10 µM
- TGI (RPMI-8226 leukemia): 4.34 µM
- TGI (RXF 393 renal): 2910 nM
- TGI (SF-268 CNS): > 7.37 µM
- TGI (SF-295 CNS): > 10 µM
- TGI (SF-539 CNS): > 10 µM
- TGI (SK-MEL-2 melanoma): 3.77 µM
- TGI (SK-MEL-28 melanoma): 4.67 µM
- TGI (SK-MEL-5 melanoma): 3.26 µM
- TGI (SK-OV-3 ovarian): > 10 µM
- TGI (SN12C renal): 3.15 µM
- TGI (SNB-19 CNS): > 10 µM
- TGI (SNB-75 CNS): > 10 µM
- TGI (SR leukemia): 2200 nM
- TGI (SW-620 colon): 3.72 µM
- TGI (T-47D breast): 3.92 µM
- TGI (TK-10 renal): 4.71 µM
- TGI (U251 CNS): > 10 µM
- TGI (UACC-257 melanoma): 3.52 µM
- TGI (UACC-62 melanoma): 5.51 µM
- TGI (UO-31 renal): > 5.86 µM
